# Assay results taken from patent US20200345725A1, “Methods and Compositions for Treating Cancer” (Omeros Corporation, priority 2019, published 2020).
# Key:
# Type in all cases: cell-based
# WT GPR174 = biological target: T1, WT GPR174 (Homo sapiens, UniProt Q9BXC1); assay: Inhibition of PS-induced GPR174 Gs signaling (GloSensor), HEK293 stably transfected with WT GPR174
# T1 construct: expressed in transfected cells; host or cells: HEK293
# Experimental: The signaling experiment was conducted as described for FIG. 45, but instead of transient transfection a pool of HEK293 cells stably transfected with either WT GPR174 (for compound 10, as shown in FIG. 47A) or GPR174-v38 for the rest of the tested compounds, as shown in FIGS. 47B-47F)) and GloSensor cAMP biosensor was used. A dilution series of each of the GPR174 inhibitory compounds 10 (Group I), 6 (Group I), 11 (Group I), 20 (Group II), 23 (Group IV), and 30 (Group IV) were prepared in DMSO. After the plates were pre-read in a luminometer, 1 μL of the compound dilution was added per well (with control wells receiving 1 μL of DMSO) followed by addition of PS liposomes to the final concentration of 1 μM. Plates were read in a luminometer after 15 minutes of incubation. The ratio of luminescence after PS addition to the pre-read luminescence value was used as a measure of receptor-mediated signaling.
# human PBMCs [1] = assay: Intracellular cytokine staining in cell populations of human PBMC; conditions: 2 days after stimulation
# Experimental: In a first experiment, human PBMCs from two different donors were incubated overnight in the presence or absence of compound 10 (10 μM). […] The cells were fixed four hours later and stained with antibodies for cell type markers (FITC-anti-CD3 and PerCP-C95.5-anti-CD4) and IL-2 (PE-anti-IL-2). The cells were analyzed by flow cytometry. The fraction of cells with intracellular IL-2 (PE-labeled) was then determined in the CD4^+ and CD8^+ T cell populations, as well as in non-T cells.
# In a second experiment, human PBMCs from two different donors were stimulated with anti-CD3 and anti-CD28 antibodies and incubated in the absence or presence of increasing concentrations of compound 10 (0, 0.1, 0.3, 1.0, or 3.0 μM). The vesicular transport was blocked two days later with GolgiStop™. The cells were fixed four hours later and stained with antibodies for cell type markers (FITC-anti-CD3, PerCP-Cy5.5-anti-CD4, PE-anti-CD56 and Pacific Blue-anti-CD16) and either of the cytokines IL-2, IL-10 and IFN-γ (anti-cytokine antibodies were all APC-labeled). The cells were analyzed by flow cytometry. The fraction of cells with intracellular IL-2, IFN-γ, IL-10 and […] was then determined in different cellular populations.
# human PBMCs [2] = assay: CTLA-4 expression on naive and memory T cells in human PBMC; conditions: 0.19-6.0 μM; one day post-stimulation; vs vehicle
# Experimental: PBMC cells from a single donor were cultured overnight with additional irradiated antigen-presenting cells (APC) in the presence of various concentrations of GPR174 inhibitory compound 10 (0.019 to 6 μM) or equivalent concentrations of vehicle (DMSO). Anti-CD3 (OKT3) was then added to the cultures for an additional 24 hours. The cells were analyzed by flow cytometry for expression of FOXP3, CTLA-4, CD4, CD3, CD45RA and CD25.
# human T cells = assay: PD-L1, TIGIT and AREG expression on human T cells in PBMC; conditions: 1.25 or 5 μM; one day post-stimulation
# Experimental: PBMC cells from a single donor mixed with additional irradiated antigen-presenting cells (APC) and anti-CD3 antibodies (UCHT1) were incubated in the presence of various concentrations of GPR174 inhibitory compound 10 (1.25 to 5 μM) or equivalent concentrations of vehicle (DMSO). The cells were analyzed by flow cytometry for expression of CD4, CD8, PD-L1, TIGIT and AREG.
# purified human T cells = assay: Cytokines of purified human T cells activated with K562 cells, with or without PS liposomes, tumor exosomes, GPR174 inhibitor; conditions: for IFN-γ FC (fold change), Compound 10 vs Vehicle / IL-2 FC (fold change), Compound 10 vs Vehicle / TNF FC (fold change), Compound 10 vs Vehicle: stimulated human T cells, compound 10, 0.5 μM
# Experimental: Purified human T cells (Astarte Biologies, Inc) were activated in the presence of K562 cells (as artificial antigen presenting cells) presenting anti-CD3 and CD80.Fc via Fc-receptor binding, in 96-well U-bottom plates containing X-vivo-15 media in the following conditions:
# Anti-CD3 (clone UCHT1, 0.5 μg/mL)
# CD80.Fc fusion protein (R&D Systems, 2 μg/mL)
# Exosomes from human breast cancer tumor cell line MDA-MB-231 (12 μg/mL) (EXOP-105A-1 from System Biosciences, LLC)
# GPR174 inhibitor (compound 10, 0.5 μM or 3 μM)
# Cells were cultured for 24 hours and supernatants were evaluated for cytokine concentrations (Legendplex, Biolegend).
# human PBMC = assay: IL-2 in supernatants of human PBMC stimulated with anti-CD3 and anti-CD28, ELISA; conditions: human PBMC donor 8, 24 hours post-stimulation; compound 10 1 μM, ZM-241385 0.1 μM, APCP 10 μM; FIG. 71
# Experimental: Human PBMCs, obtained from a human volunteer donor (donor 8), were dispensed in X-vivo15 media (Lonza) supplemented with Glutamax, penicillin and streptomycin, at density of 1×10^6 cells/well in a 96-well flat-bottom plate and were cultured in quadruplicate for 3 hours in the presence of:
# GPR174 inhibitory compound 10 (1 μM);
# CD73 inhibitory compound, adenosine 5′-(a,p-methylene)diphosphate sodium salt (APCP, Tocris, 10 μM);
# Combinations of the above agents;
# After which 1 μg/mL anti-CD3 antibody (UCHT1) and 0.1 μg/mL anti-CD28 antibody (CD28.2) were added to activate T cells. Supernatants from these cells were collected at 24 hours post-stimulation and the levels of IL-2 were determined by ELISA.
# [3] = in the presence of Exosomes (human breast cancer tumor-derived)
# [4] = in the presence of PS Liposomes
# T1 sequence (Q9BXC1 whole entry): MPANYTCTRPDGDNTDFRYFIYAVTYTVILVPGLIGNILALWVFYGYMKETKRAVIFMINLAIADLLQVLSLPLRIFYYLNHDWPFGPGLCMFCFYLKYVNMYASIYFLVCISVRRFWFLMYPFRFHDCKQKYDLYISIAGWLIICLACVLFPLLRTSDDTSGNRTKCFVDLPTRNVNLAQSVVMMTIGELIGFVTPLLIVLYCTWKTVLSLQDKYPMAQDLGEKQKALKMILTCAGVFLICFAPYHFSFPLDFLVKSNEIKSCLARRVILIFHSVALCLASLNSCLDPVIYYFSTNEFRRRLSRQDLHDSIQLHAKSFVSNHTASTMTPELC
structure (smiles),measurement,setting,value
CC1CCN(c2cc(N3CCN(S(=O)(=O)c4ccccc4)CC3)c([N+](=O)[O-])cc2F)CC1 [compound 10],PS-mediated GPR174 Gs signaling (FIG. 47A),WT GPR174; PS liposomes 1 μM,inhibited
same,IC50,"WT GPR174; PS liposomes 1 μM, WT GPR174, read-out: apparent IC50, inhibition of PS-induced GPR174 Gs signaling",20 to 40 nM
same,inhibition of the PS signaling through the GPR174 receptor,WT GPR174; at concentrations of 1-2 μM,almost complete inhibition
same,intracellular IFN-γ production by cell type,human PBMCs [1]; 0.1-3.0 μM,"enhanced in CD4 and CD8 positive T cells, as well as in NK cells"
same,intracellular IL-2 production by cell type,human PBMCs [1]; 0.1-3.0 μM,"induced specifically in T cells, both CD4 and CD8 positive"
same,intracellular IL-10 production by cell type,human PBMCs [1]; 0.1-3.0 μM,"induced specifically in T cells, both CD4 and CD8 positive"
same,intracellular TNF-α production by cell type,human PBMCs [1]; 0.1-10 μM,"enhanced in CD4 and CD8 positive T cells, as well as in NK cells"
same,CTLA4 expression in memory Treg cells (CD45RA−FOXP3+),human PBMCs [2],reduced
same,CTLA4 expression in memory non-Treg cells (CD45RA−FOXP3−),human PBMCs [2],reduced
same,CTLA4 expression in naive Treg cells (CD45RA+FOXP3+),human PBMCs [2],reduced
same,CTLA4 expression in naive non-Treg cells (CD45RA+FOXP3−),human PBMCs [2],reduced
same,AREG expression in CD4+ T cells,human T cells,reduced
same,PD-L1 expression in CD4+ T cells,human T cells,reduced
same,TIGIT expression in CD8+ T cells,human T cells,reduced
same,"IL-2 production, fold change by compound 10 in the absence of PS liposomes (FIG. 65)",purified human T cells; compound 10 3 μM,1.3 fold
same,"IL-2 production, fold change by compound 10 in the presence of PS liposomes (FIG. 65)","purified human T cells; compound 10 3 μM, PS liposomes 1 μM",2.4 fold
same,"IFN-γ FC (fold change), Compound 10 vs Vehicle",purified human T cells; [3],1.4
same,"IL-2 FC (fold change), Compound 10 vs Vehicle",purified human T cells; [3],1.7
same,"TNF FC (fold change), Compound 10 vs Vehicle",purified human T cells; [3],1.7
same,"IFN-γ FC (fold change), Compound 10 vs Vehicle",purified human T cells; in the presence of Media,1.1
same,"IL-2 FC (fold change), Compound 10 vs Vehicle",purified human T cells; in the presence of Media,1.2
same,"TNF FC (fold change), Compound 10 vs Vehicle",purified human T cells; in the presence of Media,1.4
same,"IFN-γ FC (fold change), Compound 10 vs Vehicle",purified human T cells; [4],1.3
same,"IL-2 FC (fold change), Compound 10 vs Vehicle",purified human T cells; [4],1.4
same,"TNF FC (fold change), Compound 10 vs Vehicle",purified human T cells; [4],1.7
same,increase of IL-2 levels,human PBMC,1.4 fold
